# Assays:
# [1] = test system: chorioallantoic membrane of chick fertilized egg; assay: CAM (chick embryo chorioallantoic membrane) assay, suppressing action of angiogenesis; format: in vivo; details: for Number of choriallantoic membrane with non-vascular region: EV pellet, 2 days at 37° C.
# Procedure: Suppressing Action of Angiogenesis According to CAM (Chick Embryo Chorioallantoic Membrane) Assay
# According to the method by Hayashi, et al. (Mechanism of Angiogenesis and Diseases, Medical Journal, pp. 255-266, 1996), the suppressing action of angiogenesis was tested by the CAM assay using chorioallantoic membrane of chick fertilized egg. More specifically, a hole was opened through a chick fertilized egg incubated in an incubator at 37° C. for 4 or 5 days, and then, a silicone ring of an outer diameter of 5 mm and an inner diameter of 3 mm was gently placed on the center of the chorioallantoic membrane, followed by placement of an EV (ethylene-vinyl acetate copolymer) pellet containing dienogest or MPA inside the ring. A chorioallantoic membrane on which an EV pellet with no sample was placed was used as a control group. After incubation at 37° C. for 2 days, a fat emulsion preparation was injected into each chorioallantoic membrane, so as to get a clear view of the vascular network on the chorioallantoic membrane, for subsequent observation. Formation of a non-vascular region of a diameter of 3 mm or more on the chorioallantoic membrane was defined as positive suppressing action on angiogenesis.
# a: frequency in % of the occurrence of non-vascular region, in parenthesis.
# b: Data of suppressing action on angiogenesis is statistically tested by the Fisher's accurate probability test.
# [2] = test system: angiogenesis induced by the S-180 tumor cells; assay: Murine dorsal air sac assay, angiogenesis induced by S-180 tumor cells; format: in vivo; details: mouse
# Procedure: Suppressing Action of Angiogenesis by Murine Dorsal Air Sac Assay According to the method by Iwabana et al. (Cancer Invasion & Metastatic Research Manual, Kinpodo, pp. 172-176, 1995), suppressing action of angiogenesis was tested by the murine dorsal skin method. S-180 tumor cell (murine derived sarcoma) suspended in phosphate buffered saline (PBS) was injected into a Millipore chamber, and the injection opening was closed with a nylon stopper. With an injection syringe, air (10 ml) was injected into the dorsal skin of a mouse anesthetized with Nembutal, to prepare an […], into which the Millipore chamber was transplanted. Animals were preliminarily divided into 4 groups; a Millipore chamber injected with PBS instead of S-180 tumor cells was transplanted into animals of a non-treatment control group (group A), which were then orally given 0.5% CMC carboxymethyl cellulose sodium (0.5% CMC, Wako Pure Chemical Industries, Co.) for 5 days. […] After placing a black ring of the same diameter as the diameter of these chambers at the position of the chambers in place, the number of newly formed vessels of a length of 3 mm or more inside the ring was counted under a stereoscopic microscope. […] Comparison between two groups was done and analyzed by the Wilcoxon's rank sum test; while comparison between multiple groups was done and analyzed by the Dunnett's multiple comparison.
# rabbit cornea = rabbit cornea assay system (Yamamoto); cited from earlier work
Compound,"dose that significantly increased the number of chorioallantoic membranes with non-vascular region ([1]; compared with the control group, dose-dependent)",frequency of the occurrence of non-vascular region ([1]; dose 0.01 μg/egg),Number of choriallantoic membrane with non-vascular region ([1]; dose 0.01 μg/egg),frequency of the occurrence of non-vascular region ([1]; dose 0.1 μg/egg),Number of choriallantoic membrane with non-vascular region ([1]; dose 0.1 μg/egg),frequency of the occurrence of non-vascular region ([1]; dose 1 μg/egg),Number of choriallantoic membrane with non-vascular region ([1]; dose 1 μg/egg),frequency of the occurrence of non-vascular region ([1]; dose 10 μg/egg),Number of choriallantoic membrane with non-vascular region ([1]; dose 10 μg/egg),frequency of the occurrence of non-vascular region ([1]; dose 100 μg/egg),Number of choriallantoic membrane with non-vascular region ([1]; dose 100 μg/egg),frequency of the occurrence of non-vascular region ([1]; dose 1000 μg/egg),Number of choriallantoic membrane with non-vascular region ([1]; dose 1000 μg/egg),"suppression of angiogenesis induced by the S-180 tumor cells (angiogenesis index) ([2]; group C, 0.1 mg/kg orally for 5 days)","suppression of angiogenesis induced by the S-180 tumor cells (angiogenesis index) ([2]; group D, 1 mg/kg orally for 5 days, vs solvent control group (p<0.001))",activity on angiogenic suppression (rabbit cornea),number of chorioallantoic membranes with non-vascular region compared with the control group ([1]; 100 μg/egg)
"C[C@]12CCC3=C4CCC(=O)C=C4CC[C@H]3[C@@H]1CC[C@@]2(O)CC#N [Dienogest, 17 α-cyanomethyl-17 β-hydroxy-estra-4, 9(10)-dien-3-one]",≥ 0.01 μg/egg,13.3%,2,23.5%,4,48.1%,13,54.2%,13,83.3%,20,91.7%,22,weak suppression of angiogenesis,significantly suppressed angiogenesis,,
CC(=O)[C@H]1CC[C@H]2[C@@H]3CCC4=CC(=O)CC[C@]4(C)[C@H]3CC[C@]12C [progesterone],,,,,,,,,,,,,,,,does not have any activity on angiogenic suppression,
"CC(=O)O[C@]1(C(C)=O)CC[C@H]2[C@@H]3C[C@H](C)C4=CC(=O)CC[C@]4(C)[C@H]3CC[C@@]21C [MPA, medroxyprogesterone acetate]",,,,,,,,,,50.0%,4,,,,,,significantly increased
